Patent publication US8513462B2, “Pesticides and uses thereof” (Dow AgroSciences LLC, priority 2007, dated 2013)

How the values were obtained:
[1] = tested on: cotton aphid (Aphis gossypii); assay: Insecticidal test for cotton aphid in foliar spray assay; type: in vivo; conditions: 72 h, foliar spray on squash, Corrected % Control (Abbott) after 3 days, read-out: Rating against cotton aphid on squash (foliar spray)
Protocol: (§1) The compounds identified in the foregoing examples were tested against cotton aphid using procedures described hereinafter. Insecticidal Test for Cotton Aphid (Aphis gossypii) in Foliar Spray Assay Squash seedlings with fully expanded cotyledon leaves were trimmed to one cotyledon per plant and infested with cotton aphid (wingless adults and nymphs) 1 day prior to chemical application. Each plant was examined before chemical application to ensure uniform infestation (ca. 30-70 aphids per plant). Compounds (2 mg) were dissolved in 2 ml of acetone:methanol (1:1) solvent, forming stock solutions of 1000 ppm. The stock solutions were diluted 5× with 0.025% Tween 20 in H2O to obtain a solution at 200 ppm. A hand-held Devilbiss aspirator type sprayer was used to apply the spray solutions until runoff to both sides of the squash cotyledon leaves. Four plants (4 replications) were used for each compound. Reference plants (solvent check) were sprayed with the diluent only. Treated plants were held in a holding room for 3 days at approximately 23° C. and 40% RH before the number of live aphids on each plant was recorded. Insecticidal activity was measured by Corrected % Control using Abbott's correction formula and presented in Table 1-Activity: Corrected % Control=100*(X−Y)/X • where X=No. of live aphids on solvent check plants • Y=No. of live aphids on treated plants Results are shown in Table 7. Insecticidal Test for Green Peach Aphid (Myzus persicae) in Foliar Spray Assay

[2] = tested on: green peach aphid (Myzus persicae); assay: Insecticidal test for green peach aphid in foliar spray assay; type: in vivo; conditions: 72 h, foliar spray on cabbage, Corrected % Control (Abbott) after three days, read-out: Rating against green peach aphid on cabbage (foliar spray)
Protocol: as §1, with “Squash” for “The compounds identified in the foregoing examples were tested against cotton aphid using procedures described hereinafter. Insecticidal Test for Cotton Aphid (Aphis gossypii) in Foliar Spray Assay Squash”, “Assay Cabbage seedlings grown in 3-inch pots, with 2-3 small (3-5 cm) true leaves, were used as test substrate. The seedlings were infested with 20-50 green peach aphids (wingless adult and nymph) 1-2 days prior to chemical application. Four seedlings were used for each treatment. Compounds (2 mg) were dissolved in 2 ml of acetone:methanol (1:1) solvent, forming stock solutions of 1000 ppm. The stock solutions were diluted 5× with 0.025% Tween 20 in H2O to obtain a solution at 200 ppm. A hand-held Devilbiss aspirator sprayer was used for spraying a solution to both sides of cabbage leaves until runoff. Reference plants (solvent check) were sprayed with the diluent only. Treated plants were held in a holding room for three days at approximately 23° C. and 40% RH prior to grading. Evaluation was conducted by counting the number of live aphids per plant under a microscope. Insecticidal activity was measured by using Abbott's correction formula: Corrected % Control=100*(X−Y)/X • where X=No. of live aphids on solvent check plants • Y=No. of live aphids on treated plants” for “Assay”

Row | SMILES | melting point [°C] | pest or weed control at 200 ppm [1] [%] | pest or weed control at 200 ppm [2] [%]
1 | CC(c1ccc(C(F)(F)F)nc1)S(C)(=O)=Nc1ccc(C(F)(F)F)cn1 (stereo not drawn) [Compound 12] | – | < 80 | –
2 | CC(c1ccc(C(F)(F)F)nc1)S(C)(=O)=Nc1nccs1 (stereo not drawn) [Compound 6] | – | 80 to 100 | 80 to 100
3 | CC(c1ccc(C(F)(F)F)nc1)S(C)(=O)=Nc1nc(Br)cs1 (stereo not drawn) [Compound 13, 5-{1-[methyl(4-bromo-1,3-thiazol-2-yl)sulfonimidoyl]ethyl}-2-(trifluoromethyl)pyridine] | – | 80 to 100 | < 80
4 | CCc1csc(N=S2(=O)CCCC2c2ccc(Cl)nc2)n1 (stereo not drawn) [Compound 77] | 67 to 71 | – | 80 to 100
5 | CC(c1ccc(C(F)(F)F)nc1)S(C)(=O)=Nc1ccc(F)cn1 (stereo not drawn) [Compound 1, 3-[1-ethyl(N-(2-(5-fluoro)pyridine)-sulfoximinyl)(methyl)]-6-trifluoromethylpyridine] | – | 80 to 100 | 80 to 100
6 | CC(c1ccc(C(F)(F)F)nc1)S(C)(=O)=Nc1ccccn1 (stereo not drawn) [Compound 4, 3-[1-ethyl(N-(2-pyridine)-sulfoximinyl)(methyl)]-6-trifluoromethylpyridine] | – | 80 to 100 | < 80
7 | CC(c1ccc(C(F)(F)F)nc1)S(C)(=O)=Nc1ccc(Cl)cn1 (stereo not drawn) [Compound 2, 3-[1-ethyl(N-(2-(5-chloro)pyridine)-sulfoximinyl)(methyl)]-6-trifluoromethylpyridine] | – | 80 to 100 | 80 to 100
8 | CC(C)(C)c1csc(N=S2(=O)CCCC2c2ccc(Cl)nc2)n1 (stereo not drawn) [Compound 76] | 77 to 81 | – | 80 to 100
9 | CC(c1ccc(C(F)(F)F)nc1)S(C)(=O)=Nc1ncccn1 (stereo not drawn) [Compound 5] | – | < 80 | –
10 | COc1ccc(-c2csc(N=S3(=O)CCCC3c3ccc(Cl)nc3)n2)cc1 (stereo not drawn) [Compound 78] | 88 to 94 | – | < 80
11 | CC(c1ccc(C(F)(F)F)nc1)S(C)(=O)=Nc1ccncc1 (stereo not drawn) [Compound 8] | – | < 80 | < 80
12 | CC(c1ccc(C(F)(F)F)nc1)S(C)(=O)=Nc1ccc([N+](=O)[O-])cn1 (stereo not drawn) [Compound 7] | – | 80 to 100 | 80 to 100
13 | CC(c1ccc(C(F)(F)F)nc1)S(C)(=O)=Nc1ncc(-c2ccccc2)s1 (stereo not drawn) [Compound 62, 5-{1-[methyl(5-phenyl-1,3-thiazol-2-yl)sulfonimidoyl]ethyl}-2-(trifluoromethyl)pyridine] | – | – | 80 to 100
14 | CC(c1ccc(C(F)(F)F)nc1)S(C)(=O)=Nc1cccc[n+]1[O-] (stereo not drawn) [Compound 24, 3-[1-ethyl(N-(1-oxy-pyridin-2-e)-sulfoximinyl)(methyl)]-6-trifluoromethylpyridine] | – | 80 to 100 | < 80
15 | COc1ccc(-c2csc(N=S(C)(=O)Cc3ccc(C(F)(F)F)nc3)n2)cc1 (stereo not drawn) [Compound 54] | 158 to 161 | – | < 80
16 | CC(c1ccc(C(F)(F)F)nc1)S(C)(=O)=Nc1nc(-c2ccc(Cl)c(Cl)c2)cs1 (stereo not drawn) [Compound 20] | – | – | 80 to 100
17 | CCOC(=O)c1csc(N=S(C)(=O)C(C)c2ccc(C(F)(F)F)nc2)n1 (stereo not drawn) [Compound 18] | – | – | 80 to 100

Second part, led by results:

Row | melting point [°C] | SMILES | pest or weed control at 200 ppm [1] [%] | pest or weed control at 200 ppm [2] [%]
18 | 126 to 128 | CS(=O)(Cc1ccc(C(F)(F)F)nc1)=Nc1nc(C(F)(F)F)cs1 (stereo not drawn) [Compound 55] | – | 80 to 100
19 | 114 to 116 | CCc1csc(N=S(C)(=O)Cc2ccc(Cl)nc2)n1 (stereo not drawn) [Compound 59] | – | 80 to 100
20 | 144 to 148 | CC(c1ccc(C(F)(F)F)nc1)S(C)(=O)=Nc1nc(C(C)(C)C)cs1 (stereo not drawn) [Compound 29] | – | 80 to 100
21 | 160 to 165 | CC(c1ccc(C(F)(F)F)nc1)S(C)(=O)=Nc1nc(-c2ccc(Br)s2)cs1 (stereo not drawn) [Compound 37] | – | 80 to 100
22 | 178 to 182 | CC(c1ccc(C(F)(F)F)nc1)S(C)(=O)=Nc1nc(-c2cccnc2)cs1 (stereo not drawn) [Compound 33] | – | 80 to 100
23 | 134 to 141 | CC(c1ccc(C(F)(F)F)nc1)S(C)(=O)=Nc1nc(-c2ccccn2)cs1 (stereo not drawn) [Compound 35] | – | 80 to 100
24 | 90 to 95 | CC(c1ccc(C(F)(F)F)nc1)S(C)(=O)=Nc1nc(-c2ccc(OC(F)(F)F)cc2)cs1 (stereo not drawn) [Compound 52] | – | 80 to 100
25 | 153 to 160 | COc1ccc(-c2csc(N=S(C)(=O)C(C)c3ccc(C(F)(F)F)nc3)n2)cc1OC (stereo not drawn) [Compound 48] | – | 80 to 100
26 | 89 to 94 | CC(c1ccc(C(F)(F)F)nc1)S(C)(=O)=Nc1nc(-c2ccc(F)cc2)cs1 (stereo not drawn) [Compound 27, 5-{1-[methyl(4-(4-fluorophenyl)-1,3-thiazol-2-yl)sulfonimidoyl]ethyl}-2-(trifluoromethyl)pyridine] | – | 80 to 100
27 | 134 to 137 | CC(c1ccc(C(F)(F)F)nc1)S(C)(=O)=Nc1nc(-c2ccc(Br)cc2)co1 (stereo not drawn) [Compound 75] | – | < 80
28 | 124 to 128 | CC(c1ccc(C(F)(F)F)nc1)S(C)(=O)=Nc1nc(-c2ccc(Cl)s2)cs1 (stereo not drawn) [Compound 41] | – | 80 to 100
29 | 114 to 116 | CCc1csc(N=S(C)(=O)Cc2ccc(C(F)(F)F)nc2)n1 (stereo not drawn) [Compound 56] | – | 80 to 100
30 | 107 to 110 | COc1cccc(-c2csc(N=S(C)(=O)C(C)c3ccc(C(F)(F)F)nc3)n2)c1 (stereo not drawn) [Compound 44] | – | 80 to 100
31 | 95 to 100 | CC(c1ccc(C(F)(F)F)nc1)S(C)(=O)=Nc1nc(C(F)(F)C(F)(F)F)cs1 (stereo not drawn) [Compound 30] | – | 80 to 100
32 | 124 to 127 | CC(c1ccc(C(F)(F)F)nc1)S(C)(=O)=Nc1nc(-c2ccc(C(F)(F)F)cc2)cs1 (stereo not drawn) [Compound 45] | – | 80 to 100
33 | 122 to 125 | CS(=O)(Cc1ccc(Cl)nc1)=Nc1nc(C(F)(F)F)cs1 (stereo not drawn) [Compound 58] | – | 80 to 100
34 | 102 to 106 | CC(c1ccc(C(F)(F)F)nc1)S(C)(=O)=Nc1nc(C2CC2)cs1 (stereo not drawn) [Compound 32] | – | < 80
35 | 78 to 80 | CC(c1ccc(C(F)(F)F)nc1)S(C)(=O)=Nc1nc(-c2ccc(C#N)cc2)cs1 (stereo not drawn) [Compound 43] | – | 80 to 100
36 | 168 to 173 | CC(c1ccc(C(F)(F)F)nc1)S(C)(=O)=Nc1nc(-c2ccsc2)cs1 (stereo not drawn) [Compound 38] | – | 80 to 100
37 | 88 to 93 | CC(c1ccc(C(F)(F)F)nc1)S(C)(=O)=Nc1nc(-c2ccccc2)cs1 (stereo not drawn) [Compound 15] | – | 80 to 100
38 | 105 to 110 | CCOc1ccc(-c2csc(N=S(C)(=O)C(C)c3ccc(C(F)(F)F)nc3)n2)cc1 (stereo not drawn) [Compound 46] | – | 80 to 100
39 | 72 to 77 | COc1ccccc1-c1csc(N=S(C)(=O)C(C)c2ccc(C(F)(F)F)nc2)n1 (stereo not drawn) [Compound 51] | – | 80 to 100
40 | 163 to 167 | CC(c1ccc(C(F)(F)F)nc1)S(C)(=O)=Nc1nc(-c2nccs2)cs1 (stereo not drawn) [Compound 39] | – | 80 to 100
